The values that follow are results of earlier work, collected in patent publication US5006550A, “Chroman esters of phenols and benzoic acids having retinoid-like activity” (Allergan, Inc., priority 1989, dated 1991).

The test system of this data set is ornithine decarboxylase (ODC). The following applies: background statement on retinoic acid.

In the case of `CC1=C(/C=C/C(C)=C/C=C/C(C)=C/C(=O)O)C(C)(C)CCC1` [Retinoic acid], the “inhibition of induction of ODC activity by TPA (in words)” value was “inhibits this induction of ODC activity by TPA”.
